Measured values taken from PMC6411751, “Use of machine learning to identify novel, behaviorally active antagonists of the insect odorant receptor co-receptor (Orco) subunit” (Scientific Reports, 2019).
Where a name gives a salt, the structure may show the parent alone. Read-outs that look alike come from different tables or passages of the source.

How the values were obtained:
Agam\Or39 + Agam\Orco = target: T1, Agam\Or39 + Agam\Orco (Anopheles gambiae, UniProt Q7QCC7); test: Inhibition of heteromeric OR in oocytes (6-methyl-5-hepten-2-one activation); assay type: cell-based; conditions: 100 µM antagonist; 10 µM 6-methyl-5-hepten-2-one
T1 construct: expressed in transfected cells; host or cells: Xenopus laevis oocytes
T1 sequence (Q7QCC7 1-478): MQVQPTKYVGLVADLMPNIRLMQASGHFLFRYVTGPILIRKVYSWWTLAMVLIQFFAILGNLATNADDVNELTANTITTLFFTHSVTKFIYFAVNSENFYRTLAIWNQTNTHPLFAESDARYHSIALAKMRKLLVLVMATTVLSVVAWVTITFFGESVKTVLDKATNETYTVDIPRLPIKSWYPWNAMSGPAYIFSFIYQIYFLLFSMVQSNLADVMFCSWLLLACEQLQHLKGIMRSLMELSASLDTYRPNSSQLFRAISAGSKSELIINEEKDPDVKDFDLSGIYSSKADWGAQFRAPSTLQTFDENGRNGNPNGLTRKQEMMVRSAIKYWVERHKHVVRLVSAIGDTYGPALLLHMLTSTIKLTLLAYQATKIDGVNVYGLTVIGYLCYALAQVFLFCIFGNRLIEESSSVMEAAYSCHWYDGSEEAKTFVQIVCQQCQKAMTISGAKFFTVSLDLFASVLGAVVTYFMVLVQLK
Procedure: (§1) An automated parallel electrophysiology system (OpusExpress 6000 A, Molecular Devices) was used to record Orco agonist (OLC12) or odorant induced currents under two-electrode voltage clamp. Oocytes were perfused with ND96 (in mM: 96 NaCl, 2 KCl, 1 CaCl2, 1 MgCl2, 5 HEPES, pH 7.4). DMSO was used to prepare 1 M or 100 mM stock solutions of test compounds, which were then diluted in ND96 on the day of the experiment. Compounds were applied at a flow rate of 1.0 mL/min, with extensive washing in ND96 at 4.6 mL/min between applications. Micropipettes with resistances of 0.2–2.0 MΩ were filled with 3 M KCl. The holding potential was −70 mV. Current responses were filtered (4-pole, Bessel, low pass) at 20 Hz (−3 db) and sampled at 100 Hz. OpusXpress 1.1 software (Molecular Devices) was used to capture and store current responses.
(§2) To measure the ability of Orco antagonists to inhibit odorant activation, oocytes expressing heteromeric ORs (Orco + ORX) were exposed to a 30 sec application of odorant followed by a 20 min wash. Oocytes were then exposed to a 90 sec application of Orco antagonist, immediately followed by a 30 sec co-application of Orco antagonist and odorant. The current response to odorant in the presence of Orco antagonist was compared to the preceding response to odorant alone and represented as a percentage. This value was then normalized to the value obtained when the assay was run in the absence of antagonist (sham).
(§3) Figure S3. Effects of Orco antagonists on heteromeric ORs. […]
heteromeric complexes of odorant specificity subunits and Orco. The Orco antagonists tested were 3-isopropyl-6-methyl-catechol (3 I6 MC), a potent compound from the input training set, and two compounds id e ntified in Fig u re 4 an d Ta b le 1 : 2-tert-butyl-6-methylphenol (B MP ) and linalyl formate (LF) . […]
Statistical significance of the data in each panel was assessed by one-way analysis of variance followed by Dunnett’s […]

Cqui\Or21 + Cqui\Orco = test: Inhibition of heteromeric OR in oocytes (3-methylindole or OLC12 activation); assay type: cell-based, Culex quinquefasciatus; conditions: 100 µM antagonist; for inhibition of odorant activation: 30 nM 3-methylindole; for antagonism of OLC12 (Orco agonist) activation of heteromeric OR: 3 µM OLC12
Procedure: as §1, §2, §3
heteromeric complexes of odorant specificity subunits and Orco. The Orco antagonists tested were 3-isopropyl-6-methyl-catechol (3 I6 MC), a potent compound from the input training set, and two compounds id e ntified in Fig u re 4 an d Ta b le 1 : 2-tert-butyl-6-methylphenol (B MP ) and linalyl formate (LF) . These compounds were tested for antagonist activity against odorant activation of three ORs from Anopheles gambiae (Agam\Or28 + Agam\Orco, Agam\Or39 + A ga m\Orco, Agam\Or65 + A ga m\Orco), o ne O R fro m Culex quinquefasciatus, the southern house mosquito (Cq u i\Or21 + Cqui\Orco) an d on e O R f ro m Drosophila melanogaster (Dme l\Or35a + Dmel\Orco). Each OR was activated by its cognate odorant agonist applied at an approximate EC50 concentration. […]
SEM (n = 4). […] Statistical significance of the data in each panel was assessed by one-way analysis of variance followed by Dunnett’s multiple comparison test using the pre-normalized values for each antagonist compared to the values obtained in the sham recordings (*, p < 0 .0 5; **, p < 0. 01; ***, p < 0 . 00 1 ).

Agam\Orco = target: T2, Agam\Orco (Anopheles gambiae, UniProt Q7QCC7); test: cell-based; assay type: cell-based
T2 construct: expressed in transfected cells; host or cells: Xenopus laevis oocytes injected with capped cRNA (plasmid pT7TS, gift of L. Zwiebel)
T2 sequence (Q7QCC7 1-478): T1 sequence (Q7QCC7 1-478)
How it was run: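 Xenopus oocytes injected with 25 ng Agam\Orco cRNA, clamped at −70 mV in ND96 by two-electrode voltage clamp. After two 60 s pulses of 30 μM OLC12, compound applied 90 s then co-applied with OLC12 60 s; response was given as percent of prior OLC12 responses, sham-normalized.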

Row | SMILES | inhibition of odorant activation (Agam\Or39 + Agam\Orco) | inhibition of odorant activation (Cqui\Or21 + Cqui\Orco) | antagonism of OLC12 (Orco agonist) activation of heteromeric OR (Cqui\Or21 + Cqui\Orco) | IC50 (Agam\Orco; read-out: IC50) [µM] | more potent than LF (Agam\Orco) [fold] | IC50 (Agam\Orco; 10 µM OLC12, n = 4-7, read-out: IC50 for inhibition of Agam\Orco activation by 10 µM OLC12) [µM] | IC50 (Agam\Orco; 100 µM OLC12, n = 3-9, read-out: IC50 for inhibition of Agam\Orco activation by 100 µM OLC12) [µM] | mechanism of inhibition of Orco agonist (OLC12) responses (Agam\Orco; 10 vs 100 µM OLC12 shifts inhibition curve) | IC50 (Agam\Orco; Table 1, inhibition of Agam\Orco activated by 30 µM OLC12, mean ± SEM (n = 3–8), read-out: IC50) [µM] | inhibition of OLC12 activation (Agam\Orco; 100 µM compound, 30 µM OLC12) | IC50 (Agam\Orco; Agam\Orco activated by 30 µM OLC12, read-out: IC50) [µM]
1 | C=CC(C)(CCC=C(C)C)OC=O (centres unmarked) [LF, linalyl formate] | able to inhibit odorant activation | able to inhibit odorant activation | able to antagonize OLC12 | 251 ± 39 | – | – | – | – | – | – | –
2 | Cc1cccc(C(C)(C)C)c1O [BMP, 2-tert-butyl-6-methylphenol] | able to inhibit odorant activation | able to inhibit odorant activation | able to antagonize OLC12 | – | 5 | 12 ± 2 | 137 ± 38 | competitive | 48 ± 5 | – | –
3 | Cc1ccc(C(C)C)c(O)c1O [3I6MC, 3-isopropyl-6-methyl catechol] | could inhibit odorant activation | could inhibit odorant activation | could antagonize OLC12 | – | – | – | – | – | – | strongly inhibited | 41 ± 7
